We go through six compounds from US20100233278A1, “RAPIDLY DISINTEGRATING SOLID PREPARATION” (priority 2007, published 2010).

The nature of the data set: dissolution rate of saccharide or sugar alcohol, 6-vessel dissolution tester. In kind it is physicochemical. To be noted: 2 g in desalted water 500 mL, 37° C., paddle 50 min^−1; rate constant k per surface area. As for the experimental part: In the present invention, the “dissolution rate” is obtained by using a 6-vessel dissolution tester (NTR-6100, Toyama Sangyo Co., Ltd.). The paddle rotation speed was 50 min^−1, and saccharide or sugar alcohol was added by 2 g to desalted water (500 mL), which is a test solution, heated to 37° C. Samples were taken at given time intervals after addition, changes in the dry weight of the samples per unit time were calculated, and dissolution rate constant k was calculated by the Noyes-Whitney equation. The dissolution rate constant k was converted to value per surface area of each saccharide or sugar alcohol and the obtained value was taken as dissolution rate [1/min·m^2]. As the specific surface area, the value measured by a laser diffraction particle size analyzer [Mastersizer] of Malvern Instruments Ltd. was used. The tablets obtained in the Examples and Comparative Examples were measured for hardness, disintegration time in the oral cavity, disintegration time (ODT) by the following test methods. In addition, the dissolution rate of saccharide and sugar alcohol used in the Examples and Comparative Examples was measured. • (1) The hardness was measured by a tablet hardness tester (WHT-2ME, Pharma Test). The test was performed using 3 or 10 tablets, and the average value is shown. • (2) As for the disintegration time in the oral cavity, the tablet of the present invention was placed in the oral cavity of a healthy adult without water, and the time necessary for complete disintegration of the tablet with only saliva was measured. • (3) The disintegration time (ODT) was measured by an Orally Disintegrating Tablet Tester (ODT-101, Toyama Sangyo Co., Ltd.). As for the measurement conditions, a weight (15 g, weight diameter 15 mm) was used at a rotating speed of 50 rpm, and an average of 3 measures was taken. • (4) The “dissolution rate” was measured by using a 6-vessel dissolution tester (NTR-6100, Toyama Sangyo Co., Ltd.). The paddle rotation speed was 50 min^−1, and saccharide or sugar alcohol was added by 2 g to desalted water (500 mL), which is a test solution, heated to 37° C. Samples were taken at given time intervals after addition, changes in the dry weight of the samples per unit time were calculated, and dissolution rate constant k was calculated by the Noyes-Whitney equation. The dissolution rate constant k was converted to value per the surface area of each saccharide or sugar alcohol and the obtained value was taken as dissolution rate [1/min·m^2]. As the specific surface area, the value measured by a laser diffraction particle size analyzer [Mastersizer] of Malvern Instruments Ltd. was used.
As to `OC[C@@H](O)[C@@H](O)CO` [Erythritol], the dissolution rate is given as 11.99 1/min·m^2. In the case of `OC[C@H]1O[C@@H](O[C@H]2[C@H](O)[C@@H](O)C(O)O[C@@H]2CO)[C@H](O)[C@@H](O)[C@H]1O` (stereo partly drawn) [Lactose], the dissolution rate was 5.68 1/min·m^2.

As for `OC[C@H]1O[C@@](CO)(O[C@H]2O[C@H](CO)[C@@H](O)[C@H](O)[C@H]2O)[C@@H](O)[C@@H]1O` [Purification sucrose], the dissolution rate is 2.80 1/min·m^2.

On to `OC[C@@H](O)[C@H](O)[C@@H](O)CO` [Xylitol], for which the dissolution rate is reported as 3.57 1/min·m^2. On to `OC[C@@H](O)[C@@H](O)[C@H](O)[C@H](O)CO` [α-form mannitol], for which the dissolution rate was 4.62 1/min·m^2. As for `OC[C@@H](O)[C@@H](O)[C@H](O)[C@H](O)CO` [β-form mannitol], the dissolution rate is listed as 2.28 1/min·m^2.
